Patent US20030054029A1, “IIB/IIIA ANTAGONISTS CO-ADMINISTERED WITH ASPIRIN” (priority 1997, published 2003)
“And” between values parts separate entries of the source, which are not always exact repeats. Equal entries are not always repeated.

Experiments:
[1] = test system: occlusive thrombus in left circumflex coronary artery (LCCA); test: Anesthetized canine model of coronary thrombosis (anodal current stimulation of the LCCA); type: in vivo, dog
Experimental: Sixty-six mongrel dogs of either sex weighing between 14 and 26 kg were anesthetized by intravenous administration of pentobarbital sodium solution (30 mg/kg). A supplemental dose of the anesthetic (65 to 130 mg) was administered as required. The dogs were endotracheally intubated and placed on a respirator (Biological Research Apparatus, Comerio-Varese, Italy) with the stroke volume adjusted to 20 ml/kg and a frequency of 12 breaths/minute. Peripheral arterial blood pressure was monitored with a pressure transducer (Micron Instruments, Simi Valley, Calif.) connected to a catheter placed in the right femoral artery. A catheter was inserted into the right femoral vein for withdrawing blood samples and another was inserted into the left jugular vein for administering intravenous fluids. A left thoracotomy was performed in the fifth intercostal space and the heart was suspended in a pericardial cradle. A 2 to 3-cm segment of the left circumflex coronary artery (LCCA) was isolated distal to the first diagonal branch. The small intervening coronary branches over the isolated segment were ligated. The artery was instrumented from proximal to distal with an ultrasonic flow probe, a stimulation electrode, and a Goldblatt clamp. The flow probe was connected to a Doppler flow meter (Crystal Biotech, Hopkinton, Mass.) in order to monitor the mean and the phasic LCCA blood flow velocities. The stimulation electrode and its placement in the LCCA and the methodology to induce an occlusive coronary thrombus are described in detail in Mickelson et al. Circulation, 1990; 81:617-627; Shebuski et al., Circulation, 1990; 82:169-177; and Tschopp et al., Coronary Artery Des., 1993; 4:809-817. Briefly, the needle tip of the electrode was inserted into the LCCA, ensuring its contact with the intraluminal surface of the vessel just under the Goldblatt clamp. The clamp was adjusted to reduce the peak reactive hyperemia following a 10-second period of total occlusion, without affecting the baseline mean LCCA blood flow velocity. Continuous recordings of blood pressure and LCCA blood flow velocity (mean and phasic) were obtained on a multichannel recorder (Gould Inc., Cleveland, Ohio).
Approximately 30 minutes after the preparation of the dogs, the study was continued by the administration of one of the treatments presented in Table 2.
The 0.6×SCa, 0.5×SCa and 0.4×SCa doses in Table 2 represent the reduced doses of the highest dose of SCa tested. Each dog was utilized only once. At 30 minutes, the stimulation electrode was then connected in series with a 12 K Ohms-112 K Ohms variable resistor to the positive terminal of a 9-V battery. The electrical circuit was completed by securing a needle electrode into a subcutaneous site and to the negative terminal of the battery. The anodal current delivered to the tip of the stimulation electrode was monitored and maintained at 250 μA. The number and the frequency of cyclic flow variations (CFV) that preceded the formation of an occlusive thrombus were recorded. CFV were observed as spontaneous shifts in mean and phasic LCCA blood flow velocity, with the sudden return of these variables to baseline. Proper positioning of the electrode in the LCCA was confirmed by visual inspection at the end of the experiment. Each experiment lasted for 180 minutes of anodal current unless the dog died after an occlusive thrombus was formed.

[2] = test system: Dog PRP platelet aggregation; test: In-Vitro Platelet Aggregation in PRP (ADP-induced); type: cell-based; settings: Canis lupus familiaris; ADP 50 um final concentration, dog platelet-rich plasma
Experimental: Healthy male or female dogs were fasted for 8 hours prior to drawing blood; then 30 ml whole blood was collected using a butterfly needle and 30 cc plastic syringe with 3 ml of 0.129 M buffered sodium citrate (3.8%). The syringe was rotated carefully as blood was drawn to mix the citrate. Platelet-rich plasma (PRP) was prepared by centrifugation at 975×g for 3.17 minutes at room temperature allowing the centrifuge to coast to a stop without braking. The PRP was removed from the blood with a plastic pipette and placed in a plastic capped, 50 mL Corning conical sterile centrifuge tube which was held at room temperature. Platelet poor plasma (PPP) was prepared by centrifuging the remaining blood at 2000×g for 15 minutes at room temperature allowing the centrifuge to coast to a stop without braking. The PRP was adjusted with PPP to a count of 2-3×10^8 platelets per mL. 400 uL of the PRP preparation and 50 uL of the compounds solution to be tested or saline were preincubated for 1 minute at 37° C. in an aggregometer (BioData, Horsham, Pa.). 50 uL of adenosine 5′ diphosphate (ADP) (50 um final concentration) was added to the cuvettes and the aggregation was monitored for 1 minute. All compounds are tested in duplicate. Results are calculated as follows: Percent of control=[(maximal OD minus initial OD of compound) divided by (maximal OD minus initial OD of control saline)]×100. […]

[3] = test system: collagen-induced platelet aggregation; test: Ex vivo collagen-induced platelet aggregation in PRP of treated dogs; set-up: species or system dog; settings: mean±SEM
Experimental: Peripheral venous blood was collected into citrated Vacutainer tubes (containing 0.3 ml of 3.8% sodium citrate solution) and platelet-rich plasma (PRP) was obtained by centrifugation (model Technospin R, Sorvall Instruments, DuPont, Wilmington, Del.) the blood at 266×g for 6 minutes at 24° C. Platelet-poor plasma (PPP) was obtained by further centrifugation at 2000×g for 10 minutes at 24° C. Samples were assayed on an aggregometer (model PAP-4, Bio/Data Corporation, Hatboro, Pa.) with PPP as the blank. The aggregations were performed by adding 50 μl of collagen ([…] final concentration) to 450 μl of PRP and measuring aggregation for 3 minutes. Blood samples used in platelet aggregation were collected at the following time periods: before treatment administration (baseline), immediately before anodal stimulation (at 30 minutes), at 60 minutes, then at 1-hour intervals to the end of experimentation. The blood samples at 60, 120 and 180 minutes were averaged (since the three blood samples yielded similar data) to obtain the steady-state platelet inhibition value for all comparisons except for saline and heparin (since no 120-minute sample was taken, 60 and 180 minute samples were used). Results are expressed as percent inhibition and represent steady-state conditions.

[4] = Bioassay for SCa plasma levels; type: in vivo; settings: steady state, dog plasma, mean ± SEM
Experimental: SCa plasma levels were determined from the blood samples used for platelet aggregation. Plasma levels of SCa were measured using a modification of a bioassay method previously described in Salyers et al., Throm. Res., 1994, 75:409-417. The bioassay used plasma from treated dogs as the source of inhibitor to be tested in vitro against normal (naive) platelets from donor dogs. Briefly, PRP from non-treated dogs was added to wells containing plasma samples from treated dogs in a 96 well microtiter plate. ADP (20 μM) was added to the platelet suspension in each well to induce aggregation. Optical density at 405 nanometers was measured on all wells simultaneously in a platereader (Thermomax microplate reader, Molecular Devices, Menlo Park, Calif.). The results were quantified by comparison to a standard inhibition curve prepared in plasma using known amounts of SCa.

[5] = no SCa, ASA 2.8 mg/kg iv bolus, heparin 200 units/kg bolus then 1000 units/hour
[6] = no SCa, ASA 2.8 mg/kg iv bolus, heparin 200 units/kg bolus then 1000 units/hour, mean±SEM, n=6
[7] = no SCa, ASA 2.8 mg/kg iv bolus, heparin 200 units/kg bolus then 1000 units/hourly, mean ± SEM, n=6/group
[8] = no SCa, ASA 2.8 mg/kg iv bolus, heparin 200 units/kg bolus then 1000 units/hourly, n=6/group
[9] = 0.6 × SCa (0.52//0.23 μg/kg/min iv)
[10] = 1 × SCa (0.87//0.39 μg/kg/min iv)
[11] = 0.6 × SCa (0.52//0.23 μg/kg/min iv), mean±SEM, n=6

Molecule: CC(=O)Oc1ccccc1C(=O)O [ASA, acetylsalicyclic acid, reference compound]
- occurrence of thrombosis (occlusive thrombus) in dogs ([1]; no SCa, ASA 2.8 mg/kg iv bolus, 180 minutes of anodal current, n=6): did occur before the completion of the 180 minutes of current in all of the dogs
- effectiveness in the thrombosis model [1, 5]: not effective
- time to zero flow [1, 6]: 64 ± 7 min
- Mean CFV/Minute (×100) [1, 7]: 6 ± 2 CFV/Minute (×100)
- Number of Dogs with CFV [1, 8]: 6/6

Molecule: C#C[C@H](CC(=O)OCC)NC(=O)CCC(=O)Nc1ccc(C(=N)N)cc1 [Example 1, Ethyl 3S-[[4-[[4-(aminoiminomethyl)phenyl]-amino]-1,4-dioxobutyl]amino]-4-pentynoate]
- IC50 [2]: 4600 nM

Molecule: C#C[C@H](CC(=O)O)NC(=O)CCC(=O)Nc1ccc(C(=N)N)cc1 [Example 2]
- steady-state inhibition of platelet aggregation (Percent Inhibition) ([3]; 0.5 × SCa (0.425//0.20 μg/kg/min iv) alone or with ASA 2.8 mg/kg bolus and/or heparin 200 units/kg + 1000 units/hour): 70±4%
- steady-state inhibition of platelet aggregation (Percent Inhibition) [3, 9]: 83±3%
- steady-state inhibition of platelet aggregation (Percent Inhibition) [3, 10]: 92±5%
- dogs with occlusive thrombus / LCCA thrombosis ([1]; 0.5 × SCa (0.425//0.20 μg/kg/min iv) alone or with ASA and/or heparin, 180 minutes of anodal current, n=6/group): 4 of 6
- Mean CFV/Minute (×100) ([1]; 0.5 × SCa (0.425//0.20 μg/kg/min iv) alone or with ASA and/or heparin, mean ± SEM, n=6/group): 5 ± 1 CFV/Minute (×100)
- Number of Dogs with CFV ([1]; 0.5 × SCa (0.425//0.20 μg/kg/min iv) alone or with ASA and/or heparin, n=6/group): 6/6
- time to zero flow ([1]; 0.5 × SCa (0.425//0.20 μg/kg/min iv), mean±SEM, n=6): 130 ± 22 min
- Mean CFV/Minute (×100) [1, 11]: 3 ± 1 CFV/Minute (×100)
- time to zero flow [1, 11]: 158 ± 15 min
- Number of Dogs with CFV ([1]; 0.6 × SCa (0.52//0.23 μg/kg/min iv), n=6): 4/6
- occurrence of thrombosis (occlusive thrombus) in dogs ([1]; 1 × SCa (0.87//0.39 μg/kg/min iv), 180 minutes of anodal current, n=6): did not occur in any of the dogs
- Mean CFV/Minute (×100) ([1]; 1 × SCa (0.87//0.39 μg/kg/min iv), during anodal stimulation of the LCCA, mean ± SEM, n=6): 0.7 ± 0.7 CFV/Minute (×100)
- Number of Dogs with CFV ([1]; 1 × SCa (0.87//0.39 μg/kg/min iv), n=6, listed as SCa): 1 of 6 and 1/6
- time to zero flow ([1]; 1 × SCa (0.87//0.39 μg/kg/min iv, loading 15 min // maintenance), 180 min = end of protocol with no occlusion, mean±SEM, n=6): 180 ± 0 min
- IC50 [2]: 70 nM
- Plasma Level of SCa ([4]; 0.5 × SCa (0.425//0.20 μg/kg/min iv)): 35 ± 8 ng/mL
- Plasma Level of SCa [4, 9]: 48 ± 7 ng/mL
- Plasma Level of SCa [4, 10]: 57 ± 4 ng/mL

Molecule: Heparin [reference compound]
- steady-state inhibition of platelet aggregation [3, 5]: 13±2%
- effectiveness in the thrombosis model [1, 5]: not effective
- time to zero flow [1, 6]: 114 ± 16 min
- Mean CFV/Minute (×100) [1, 7]: 5 ± 1 CFV/Minute (×100)
- Number of Dogs with CFV [1, 8]: 6/6
